Measurements: publication PMC9697976, “Giardia lamblia G6PD::6PGL Fused Protein Inhibitors Decrease Trophozoite Viability: A New Alternative against Giardiasis” (International Journal of Molecular Sciences, 2022)
pIC50: −log10 of the molar value. Where two headings read alike, the source gives them in different places.

Assays:
HsG6PD [1] = target: T1, HsG6PD (Homo sapiens, UniProt P11413); design: method as in earlier work; details: ref 24 (Ramirez-Nava et al.); cited from earlier work
HsG6PD [2] = target: T1, HsG6PD; experiment: Effect of compounds on HsG6PD activity at 400 µM; type: biochemical
Text: Based on the above, we decided to evaluate the effect in vitro of the compounds in the inactivation of the G6PD::6PGL enzyme.

G. lamblia trophozoites = experiment: Antigiardial activity, trophozoite viability (trypan blue); type: cell-based; details: Giardia duodenalis, 48 h, read-out: IC50 G. lamblia (trophozoite viability)
Experimental: The trophozoites were incubated in the presence of compounds for 48 h at 37 °C with increasing concentrations of each of the compounds, and later the viability of the trophozoites was determined. The values represent mean ± standard deviation from three independent experiments, and standard errors of the mean were lower than 5%.
The Giardia lamblia WB strain (ATCC number 30957) was grown and cultivated in a modified TYI-S-33 medium supplemented with 10% fetal bovine serum at 37 °C. G. lamblia was harvested from a confluent culture by chilling the tubes on ice for 5–10 min to detach cells, followed by centrifugation at 800× g for 5 min. For the antigiardial activity assay, 5 × 10^4 trophozoites of G. lamblia were incubated with different concentrations of the compounds (31, 62, 125, 250, and 500 µM) in a final volume of 1.5 mL and then incubated for 48 h at 37 °C. After incubation, 75 µL of the treated trophozoites were subcultured individually for another 48 h in a fresh medium without compounds. At the end of this period, the viable trophozoites were counted using trypan blue. Each compound was assayed in three independent experiments. Appropriate controls were tested in each assay, including a sample without compounds and another with only 2% DMSO.

[3] = In vitro cytotoxicity, XTT assay, HT29; details: human
Experimental: (§1) An XTT cell proliferation assay determined the viability.
(§2) The cytotoxicity assay was performed using human cell lines Caco-2 (ATCC HTB-37) and HT29 (ATCC HHTB-38) with a Cell Proliferation Kit II (XTT; St Louis, MO, USA). A cell suspension of 2 × 10^5 cells/mL was prepared in Dulbecco’s modified Eagle’s (DMEM) medium, supplemented with 10% inactivated fetal bovine serum and 1% penicillin/streptomycin (5000 U/mL), and 100 µL portions of the suspension were added to the wells of 96-well plates. The plates were incubated for 24 h at 37 °C in an atmosphere of 5% CO2. The medium in each well was replaced with 100 µL medium with compounds at 500, 250, 150, 75, 32, and 16 µM. After 48 h of incubation at 37 °C in an atmosphere of 5% CO2, the viability of cells was determined. The medium in each well was gently replaced with 100 µL of fresh medium, 50 µL of XTT labeling mixture was added per well, the mixture was incubated for four h at 37 °C and 5% CO2, and the absorbance at 495 nm was measured. Each compound was assayed in triplicate via three independent experiments. The CCI50 values were determined using the nonlinear regression function of GraphPad Prism version 6.04 for Windows.

HT29 cells [4] = experiment: In vitro cytotoxicity, XTT assay, HT29; details: for Decrease of HT29 cell viability: 250 µM compound; for Selectivity index (SI), CC50 HT29 / IC50 G. lamblia: ratio of CC50/IC50 between mammalian cells and trophozoites
Experimental: as §1, §2

in vitro = details: human, Caco-2
Experimental: as §1, §2

Caco-2 cells [5] = experiment: in vitro; details: 250 µM compound
Experimental: as §1, §2

G6PD::6PGL fused enzyme [6] = target: T2, G6PD::6PGL fused enzyme (Giardia intestinalis, UniProt A8BWM5); experiment: Second-order inactivation constant (k2) of G6PD::6PGL; type: biochemical, Giardia lamblia; details: for kinact/KI: read-out: Second-order inactivation constant (k2)
Experimental: At the indicated times, aliquots were withdrawn from the samples and assayed for residual activity. Initial velocity was fitted to determine each compound’s pseudo-first-order inactivation constants (k1). […] All experiments were performed in triplicate.
Inactivation assays were performed to determine the rate of each to form the enzyme–inhibitor complex. First, the pseudo-first-order constants (k1) were obtained by incubating 0.2 mg/mL of pure G6PD::6PGL enzyme and different concentrations of compound (0 to 500 µM) at 37 °C in time intervals (0–120 min). After the incubation period, enzyme activity was measured spectrophotometrically following the reduction of NADP^+ at 340 nm for each experimental condition. The results were expressed in terms of the activity percentage against each compound’s concentration. The residual activity data were fitted to a mono-exponential decay model, using the equation AR=A0 e^−kt , where AR is the residual activity at different times, A0 is the activity at the initial time, and k is the pseudo-first-order inactivation constant (min^−1). Subsequently, the constants obtained were plotted against the corresponding inhibitor concentration. A linear regression model was applied to obtain the second-order inactivation constant k2 (M^−1 s^−1).

G6PD::6PGL fused enzyme [7] = target: T2, G6PD::6PGL fused enzyme; experiment: Enzymatic inhibition assay (concentration-dependent inactivation) of G6PD::6PGL; type: biochemical, Giardia lamblia; details: for inhibition at 200 µM: read-out: Loss of initial G6PD::6PGL activity
Experimental: G6PD::6PGL protein was adjusted at 0.2 mg/mL and incubated in the presence of different concentrations of compounds (0–800 μM). After incubation, aliquots were withdrawn from the samples, and the residual activity was determined. The G6PD::6PGL without compounds was used to determine 100% activity. The assays were carried out in triplicate, and the data represent the mean ± standard error.
The IC50 values of the four selected compounds were determined. […] The assay was performed using a protein concentration of 0.2 mg/mL in buffer T (100 mM Tris–HCl, 30 mM MgCl2, pH 8) with different concentrations of the compounds (0 to 800 µM). The protein was incubated at 37 °C for 2 h after the residual activity of the G6PD domain was measured. The data were plotted as percent activity, where 100% was taken as the enzyme’s activity without compounds. All values were adjusted to the Boltzmann sigmoid equation in the Origin 8.0® program (Northampton, MA, USA) to obtain the IC50 value expressed in µM units.

G6PD::6PGL fused enzyme [8] = target: T2, G6PD::6PGL fused enzyme; experiment: Screening of in-house library on G6PD::6PGL activity at 400 µM; type: biochemical, Giardia lamblia
Experimental: The effects of 120 organic molecules from the in-house chemical library of compounds, which were synthesized in the Medicinal Chemistry Laboratory at the Pharmacy Faculty of the Autonomous University Morelos State, include mainly aromatic and non-aromatic heterocyclic compounds with heteroatoms such as nitrogen, oxygen, and sulfur, which were evaluated as possible specific inhibitors of G6PD::6PGL. The assay was carried out following what was reported by Martinez-Rosas et al.; each compound was dissolved in dimethyl sulfoxide (DMSO), and the recombinant enzyme G6PD::6PGL (0.2 mg/mL) was incubated with the compounds at a concentration of 400 µM, for 2 h, at 37 °C. The residual enzymatic activity of the G6PD domain was measured following the spectrophotometric NADP^+ reduction at 340 nm with the standard reaction mixture. Activity data were plotted as percent residual activity, where 100% activity was taken from enzyme samples incubated without a compound.

Caco-2 cells [9] = details: cited from earlier work
HT29 cells [10] = details: nitazoxanide; cited from earlier work
[11] = 400 μM compound, read-out: HsG6PD Inhibition (%) at (400 μM)
[12] = read-out: G6PD::6PGL IC50, 0.2 mg/mL enzyme, 0–800 μM compound, 2 h, 37 °C
[13] = read-out: G6PD::6PGL Inhibition (%) at (400 μM), 400 μM compound, 0.2 mg/mL enzyme, 2 h, 37 °C
[14] = read-out: G6PD::6PGL Inhibition (%) at (400 μM)

T1 sequence (P11413 whole entry): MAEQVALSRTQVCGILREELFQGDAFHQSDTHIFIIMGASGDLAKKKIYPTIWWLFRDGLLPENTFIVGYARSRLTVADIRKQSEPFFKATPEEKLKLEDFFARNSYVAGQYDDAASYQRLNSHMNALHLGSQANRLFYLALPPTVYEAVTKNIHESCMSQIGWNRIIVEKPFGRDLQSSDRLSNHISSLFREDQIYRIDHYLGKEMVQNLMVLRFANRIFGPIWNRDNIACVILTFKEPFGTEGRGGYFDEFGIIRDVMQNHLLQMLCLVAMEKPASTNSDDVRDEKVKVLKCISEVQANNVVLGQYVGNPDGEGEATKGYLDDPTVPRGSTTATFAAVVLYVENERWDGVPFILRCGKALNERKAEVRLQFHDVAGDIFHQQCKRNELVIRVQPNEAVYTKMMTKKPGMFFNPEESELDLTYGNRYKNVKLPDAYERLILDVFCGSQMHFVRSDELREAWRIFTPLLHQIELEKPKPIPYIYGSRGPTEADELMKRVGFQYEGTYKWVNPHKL
T2 sequence (A8BWM5 entry or part of it): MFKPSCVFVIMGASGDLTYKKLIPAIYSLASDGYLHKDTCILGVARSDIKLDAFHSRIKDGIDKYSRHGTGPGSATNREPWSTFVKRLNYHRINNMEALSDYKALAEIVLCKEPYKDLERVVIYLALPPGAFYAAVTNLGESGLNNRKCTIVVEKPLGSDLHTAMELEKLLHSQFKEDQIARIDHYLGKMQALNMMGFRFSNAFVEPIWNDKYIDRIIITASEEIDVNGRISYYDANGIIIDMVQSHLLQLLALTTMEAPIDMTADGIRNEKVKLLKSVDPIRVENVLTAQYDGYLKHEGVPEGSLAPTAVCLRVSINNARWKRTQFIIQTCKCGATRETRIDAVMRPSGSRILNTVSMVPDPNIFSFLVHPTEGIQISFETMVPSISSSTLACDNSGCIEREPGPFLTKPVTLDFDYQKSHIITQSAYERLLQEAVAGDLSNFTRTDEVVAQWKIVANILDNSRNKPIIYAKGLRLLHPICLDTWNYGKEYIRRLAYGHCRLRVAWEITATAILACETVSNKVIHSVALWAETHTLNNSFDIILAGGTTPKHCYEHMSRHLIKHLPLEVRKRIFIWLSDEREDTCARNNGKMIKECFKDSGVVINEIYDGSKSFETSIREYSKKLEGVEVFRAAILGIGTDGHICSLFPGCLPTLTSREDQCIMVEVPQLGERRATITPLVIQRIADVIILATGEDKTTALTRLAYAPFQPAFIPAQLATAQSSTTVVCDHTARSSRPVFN

Row | Structure (SMILES) | inhibition at 400 µM (HsG6PD [2]; [11]) | pIC50 (G. lamblia trophozoites; 37 °C, WB strain) | Decrease of HT29 cell viability (HT29 cells [4]) | Selectivity index (SI), CC50 HT29 / IC50 G. lamblia (HT29 cells [4]) | CC50 at 48 h (in vitro) | selectivity ratio at 48 h (in vitro) | Decrease of Caco-2 cell viability (Caco-2 cells [5]) | kinact/KI (G6PD::6PGL fused enzyme [6]) | inhibition at 200 µM (G6PD::6PGL fused enzyme [7]; 2 h) | pIC50 (G6PD::6PGL fused enzyme [7]; [12]) | inhibition at 400 µM (G6PD::6PGL fused enzyme [8]; [13]) | pIC50 (G6PD::6PGL fused enzyme [7]) | further results
1 | CCCCOc1ccc(NC(=O)Nc2nc([N+](=O)[O-])cs2)cc1 [CNZ-7] | 68% | 5.06 | 25% | 60 | 640 µM | 74 | approximately 20% | 0.97 M⁻¹ s⁻¹ | 60% | 3.82 | 85% |  | pIC50 (HsG6PD [1]): 3.56; CC50 at 48 h ([3]; HT29 cells): 529 µM
2 | CCCCCC(=O)Nc1nc([N+](=O)[O-])cs1 [FLP-2] | ~20% | 4.82 |  | 125 | 3180 µM | 208 |  | 0.82 M⁻¹ s⁻¹ | 40% | 3.59 | 89% |  | CC50 at 48 h ([3]; HT29 cells): 1910 µM
3 | Cc1ncc([N+](=O)[O-])n1CCO [Metronidazole, reference compound] |  | 5.32 |  |  |  |  |  |  |  |  |  |  | CC50 Caco-2 (literature IC50) (Caco-2 cells [9]; metronidazole): 19 µM
4 | O=C(Nc1ccc([N+](=O)[O-])cc1)Nc1nc([N+](=O)[O-])cs1 [CNZ-8] | 43% | 4.82 | 25% | 41 | 633 µM | 41 | approximately 20% | 0.6 M⁻¹ s⁻¹ | 80% | 4.10 | 75% |  | CC50 at 48 h [3]: 622 µM
5 | O=C1NC(=O)C(=Cc2ccc(OCc3ccccc3)cc2)C(=O)N1 [CMC-1] |  |  | 25% |  |  |  | approximately 20% |  | 100% |  |  | 4.15 | inhibition at 400 µM (HsG6PD [2]; read-out: HsG6PD Inhibition (%) at (400 μM), 400 μM compound): ~34%; pIC50 (G. lamblia trophozoites): 4.62; Second-order inactivation constant (k2) (G6PD::6PGL fused enzyme [6]; 0.2 mg/mL enzyme, 37 °C, 0–120 min): 0.97 M⁻¹ s⁻¹; inhibition at 400 µM (G6PD::6PGL fused enzyme [8]; [14]): 98%
6 | O=C1CC(=O)NC(=O)N1 [Barbituric acid, reference compound] |  |  |  |  |  |  |  |  |  |  |  | < 3.30 | inhibition at 400 µM (G6PD::6PGL fused enzyme [8]; [14]): 0%
7 | CC(=O)Oc1ccccc1C(=O)Nc1ncc([N+](=O)[O-])s1 [Nitazoxanide, reference compound] |  |  |  | 12 |  | 7 |  |  |  |  | 100% | 4.11 | CC50 HT29 (literature IC50) (HT29 cells [10]): > 50 µM; pIC50 (G. lamblia trophozoites): 5.38; CC50 Caco-2 (literature IC50) (Caco-2 cells [9]; nitazoxanide): 26.8 µM
